Data: EP2077092A2, “System and Methods for Screening or Analyzing Targets” (Taipei Veterans General Hospital, priority 2007, dated 2009)

Key:
[1] = system: inactive caspases 3 (pro-form); assay: Protein level of inactive caspase 3 (pro-form) in fluoxetine-treated NSCs; type: cell-based, Sprague-Dawley rats; conditions: different concentrations of fluoxetine treatment
Method: (§1) All animal used were treated in accordance with the Animal Care and Use Committee guideline at Taipei Veterans General Hospital. Adult Sprague-Dawley rats (8 weeks old, 250 g) were anesthetized with intraperitoneal phenobarbital (Sigma, USA). The location of their brains was mapped: then, the brain was surgically separated from the hippocampus region with the procedure. Tissues from the hippocampus of the adult SD rats were dissociated and incubated in Hank's balanced salt solution (HB'SS) containing collagenase (78 units/ml) and hyaluronidase (38 units/ml) for 10 mins at 37°C. The tissues were then mechanically dissected and placed in a trypsin solution (1.33 mg/ml) at 37°C for another 10 mins. Dissociated cells were then centrifuged at 150g for 5 mins. The enzyme solution was then removed and replaced with serum-free culture media composed of Dulbecco modified Eagle medium (DMEM) and F-12 nutrient (1:1) including insulin (25 µg/mL), transferrin (100 µg/mL), progesterone (20 nM), putrescine (60µM), sodium selenite (30 nM), and human […] epidermal growth factor (EGF) 20 ng/mL and fibroblast growth factor-basic (bFGF) 20 ng/mL (R&D Systems, Minneapolis, MN). Viable cells were counted by trypan blue exclusion and plated as 5000 cells/200 µL per well in 96-well plates (Corning, Acton, MA) with no substrate pretreatment. […]

c-FLIP promoter = c-FLIP promoter luciferase assay in fluoxetine-treated NSCs; type: cell-based, Sprague-Dawley rats; conditions: fluoxetine 20 µm; full-length and deletion mutants of the c-FLIP promoter in NSCs
Method: as §1

[2] = system: inactive caspases 8 (pro-form); assay: Protein level of inactive caspase 8 (pro-form) in fluoxetine-treated NSCs; type: cell-based, Sprague-Dawley rats; conditions: different concentrations of fluoxetine treatment
Method: as §1

c-FLIP = c-FLIP mRNA expression in fluoxetine-treated NSCs (real-time RT-PCR); type: cell-based, Sprague-Dawley rats; conditions: FL-treated NSCs
Method: (§2) All animal used were treated in accordance with the Animal Care and Use Committee guideline at Taipei Veterans General Hospital. Adult Sprague-Dawley rats (8 weeks old, 250 g) were anesthetized with intraperitoneal phenobarbital (Sigma, USA). The location of their brains was mapped: then, the brain was surgically separated from the hippocampus region with the procedure. Tissues from the hippocampus of the adult SD rats were dissociated and incubated in Hank's balanced salt solution (HB'SS) containing collagenase (78 units/ml) and hyaluronidase (38 units/ml) for 10 mins at 37°C. The tissues were then mechanically dissected and placed in a trypsin solution (1.33 mg/ml) at 37°C for another 10 mins. Dissociated cells were then centrifuged at 150g for 5 mins. […] Viable cells were counted by trypan blue exclusion and plated as 5000 cells/200 µL per well in 96-well plates (Corning, Acton, MA) with no substrate pretreatment.
For real-time RT-PCR, the total RNA was extracted using the RNAeasy kit (Qiagen, Valencia, CA, USA) as previously described C.L. Kao et al., Mod Pathol 18 (2005) 769-778.[15]. […] The quantification in the unknown samples was performed by the LightCycler Relative Quantification Software version 3.3 (Roche Molecular Systems, Alameda, CA, USA). […]

c-FLIPL = assay: c-FLIP protein expression in fluoxetine-treated NSCs (Western analysis); type: cell-based, Sprague-Dawley rats; conditions: FL-treated NSCs
Method: as §2, with “pretreatment. […]” for “pretreatment.”
An avidin-biotin complex method was used for the immunohistochemical staining in the differentiated NSCs. […] Immunoreactive signals were detected with a mixture of biotinylated rabbit antimouse IgG and Fluoesave (Calbiochem, La Jolla, CA, USA) under immunofluorescent microscope (Olympus FV300).

caspase 8 = assay: Caspase 8 activity ELISA in LPS-treated NSCs; type: cell-based, Sprague-Dawley (SD) rats; conditions: siRNA or U0126 (40 µM) added to LPS- and IM-treated NSCs
Bcl-2 protein = Bcl-2 protein expression in NSCs by western blot and immunohistochemistry; type: cell-based, Sprague-Dawley (SD) rats; conditions: siRNA or MAPK inhibitor added to IM-treated NSCs
caspase 3 = assay: Caspase 3 activity ELISA in LPS-treated NSCs; type: cell-based, Sprague-Dawley (SD) rats; conditions: siRNA or U0126 (40 µM) added to LPS- and IM-treated NSCs
TNF-α = TNF-α ELISA in LPS-treated NSCs; type: cell-based, Sprague-Dawley (SD) rats; conditions: siRNA or U0126 (40 µM) added to LPS- and IM-treated NSCs
NSCs [3] = assay: Immunofluorescent assay of serotonin (5-HT)-positive cells in differentiating NSCs; type: cell-based, Sprague-Dawley (SD) rats; conditions: siRNA or U0126 added, Day 7 culture of IM-treated NSCs
LPS-treated NSCs [4] = assay: TUNEL assay of LPS-induced apoptosis in NSCs; type: cell-based, Sprague-Dawley (SD) rats; conditions: siRNA or U0126 (40 µM) added to LPS- and IM-treated NSCs
NSCs [5] = assay: Microdialysis with HPLC-ECD of 5-HT in the culture medium of IM-treated NSCs; type: cell-based, Sprague-Dawley (SD) rats; conditions: siRNA or U0126 added, Day 7 and Day 14, p<0.05
LPS-treated NSCs [6] = assay: MTT cell survival of LPS-treated NSCs; type: cell-based, Sprague-Dawley (SD) rats; conditions: siRNA or U0126 added to LPS- and IM-treated NSCs
IL-1β = IL-1β ELISA in LPS-treated NSCs; type: cell-based, Sprague-Dawley (SD) rats; conditions: siRNA or U0126 (40 µM) added to LPS- and IM-treated NSCs
IL-6 = IL-6 ELISA in LPS-treated NSCs; type: cell-based, Sprague-Dawley (SD) rats; conditions: siRNA or U0126 (40 µM) added to LPS- and IM-treated NSCs
NSCs [7] = assay: Immunofluorescent assay of MAP-2-positive cells in differentiating NSCs; type: cell-based, Sprague-Dawley (SD) rats; conditions: siRNA or U0126 added, Day 7 culture of IM-treated NSCs
[8] = parameters: species or system Sprague-Dawley rats; conditions: in vivo, iv, 30 mg/kg, 360 min
Method: Adult, male Sprague-Dawley rats (280-350 g) were obtained from the Laboratory Animal Center at National Yang-Ming University (Taipei, Taiwan). These animals were specifically pathogen-free and were allowed to acclimate to their environmentally controlled quarters (24 ± 1°C and 12:12 h light-dark cycle) for at least 5 days before the experiments began. At the start of experiments, the rats were anesthetized with urethane 0.8 g/ml and chloralose 0.08 g/ml ([…], i.p.). Throughout the experimental period, anesthesia was maintained by administering one quarter of the initial dose at each hour. The experimental animals were kept warm with a heating pad throughout the experiments.
The HPLC system consisted of a chromatographic pump (BAS PM-80, Bioanalytical System, West Lafayette, IN, USA), an on-line injector (CMA/160, Stockholm, Sweden) equipped with a 20 µl sample loop and a UV detector (Soma S-3702, Tokyo, Japan). […] Output signal from the HPLC-UV was recorded using an EZChrom chromatographic data system (Scientific Software, San Ramon, CA, USA). […]
For in vivo recovery, normal saline solution containing cefoperazone (50 or 100 µg/ml) were pumped through the probes at a constant flow rate (2 µl/min) using the infusion pump (CMA/100). After a stabilization period of 2 h, the inlet (Cin) and outlet (Cout) concentrations of cefoperazone were determined by HPLC. […]

CNCCC(Oc1ccc(C(F)(F)F)cc1)c1ccccc1 (centres unmarked) [FL, fluoxetine]
protein levels of inactive caspases 3 (pro-form) [1]: not decreased | activation of c-FLIP promoter (luciferase assay) (c-FLIP promoter): c-FLIP promoter region from bp -414 to -133 was necessary for its activation by FL | protein levels of inactive caspases 8 (pro-form) [2]: not decreased | mRNA expression of c-FLIP (c-FLIP): up-regulated | protein expression of c-FLIP (c-FLIPL): up-regulated

N#CC(=C(/N)Sc1ccccc1N)/C(C#N)=C(\N)Sc1ccccc1N [U0126]
apoptotic activities (caspase 8) in LPS- and IM-treated NSCs (caspase 8): significantly enhanced | Bcl-2 expression induced by IM in NSCs (Bcl-2 protein): effectively blocked | apoptotic activities (caspase 3) in LPS- and IM-treated NSCs (caspase 3): significantly enhanced | levels of TNF-α in LPS-treated NSCs with IM (TNF-α): significantly increased | percentages of serotonin (5-HT)-positive cells in IM-treated NSCs (NSCs [3]): significantly decrease | apoptotic activities (TUNEL) in LPS- and IM-treated NSCs (LPS-treated NSCs [4]): significantly enhanced | production of 5-HT of the IM-treated NSCs (NSCs [5]): significantly diminished | cell viability in the LPS-treated NSCs with IM (LPS-treated NSCs [6]): dramatically decreased | levels of IL-1β in LPS-treated NSCs with IM (IL-1β): significantly increased | levels of IL-6 in LPS-treated NSCs with IM (IL-6): significantly increased | percentages of MAP-2-positive cells in IM-treated NSCs (NSCs [7]): significantly decrease

CCN1CCN(C(=O)N[C@@H](C(=O)N[C@@H]2C(=O)N3C(C(=O)O)=C(CSc4nnnn4C)CS[C@H]23)c2ccc(O)cc2)C(=O)C1=O [cefoperazone]
cefoperazone in microdialysate from rat biliary duct [8]: 27.8 µg/mL
